Tests used:
Foxc2 expression [1] = test: High through-put screening: beta-gal activity (Beta-glo kit) in Foxc2nLacZ MEFs differentiated into adipocytes; assay type: cell-based, mouse
Protocol: Primary MEFs from both wild type and Foxc2nLacZ knock-in mice were maintained in DMEM supplied with 10% FBS and antibiotics. For differentiation into adipocytes the MEFs were grown until confluency and then stimulated (Day 0) with a differentiation media (DMEM, 10% FBS, antibiotics, 1 uM dexamethasone, 0.5 mM isobutyl-methyl-xanthine, 10 ug/mL insulin, 20 ng/ml FGF (all from Sigma), and 1 uM rosiglitazone (Alexis)). New differentiation media was added at day 3. At day 5 the differentiation media was removed and the cells were cultured in a media containing DMEM, 10% FBS, antibiotics, 10 ug/mL insulin, 1 uM rosiglitazone, and 20 ng/ml FGF. This media was changed every second day. From day 10 the cells were kept DMEM supplied with 10% FBS and antibiotics for 24 hours as a wash out period before initiating the experiments.
Foxc2nLacZ MEFs were plated onto gelatine coated 96 well plates. Differentiation was initialized after confluence according to protocol. […] After a wash out period for 24 hours the cells were subjected to different compounds for the indicated time points and subsequently induction of β-gal enzyme activity was measured using the Beta-glo kit (Promega) and a luminometric plate reader. Confluent cells differentiated into adipocytes were detected by increased X-gal staining (FIG. 5a-d), Foxc2nLacZ protein levels increased transiently during the differentiation process. […]

Foxc2 expression [2] = test: Monitoring Foxc2 expression in MEFs by X-gal staining; assay type: cell-based, mouse; conditions: acute treatment; MEFs from heterozygous Foxc2nLacZ E13.5 embryos
Protocol: FIG. 4 specifies the expression of Foxc2 during adipocyte differentiation of mouse embryonic fibroblasts (MEFs), which were isolated from Foxc2nLacZ±E13.5 embryos as well as wt littermates as control. The MEFs were treated with adipocyte differentiation mix (0.5 mM IBMX, 0.25 μM Dex and 10 μg/mL insulin) and X-gal stained at different time points after start of differentiation. Expression of Foxc2 increases during the course of adipocyte differentiation as judge by increasing β-galactosidase activity.
MEFs were isolated from E13.5 embryos from Foxc2nLacZ±heterozygous intercrosses and genotyped by PCR on DNA from the tail. The head, limbs and viscera were removed from embryos and the remains were minced with a razor blade and incubated in 0.25% trypsin, 0.1% EDTA for 1 h at 37° C. The cell suspension was plated in DMEM containing 10% fetal calf serum and antibiotics (100 units of penicillin and 100 μg/mL streptomycin). Once the cultures reached confluency, 1×10^6 cells were plated on 10-cm tissue culture plates (Falcon) and considered passage 0.
A cell based high-throughput screening system has been established by isolation of MEFs from heterozygous Foxc2nLacZ±E13.5 embryos as well as from wt embryos as a control.

Compound: CCCCCCCCCCCCCC(=O)O[C@@H]1[C@@H](C)[C@@]2(O)[C@@H](C=C(CO)C[C@]3(O)C(=O)C(C)=C[C@@H]23)[C@@H]2C(C)(C)[C@]12OC(C)=O [TPA, 12-O-tetradecanoylphorbol-13-acetate]
- beta-gal activity (Foxc2 expression [1]; Foxc2nLacZ MEFs differentiated into adipocytes, 96 well plates, 50 μg per well at 0 h, acute treatment, Beta-glo kit): increase in beta-gal activity
- levels of reporter gene over time (Foxc2 expression [1]; single dose, gene construct with in frame fusion of Foxc2 with a reporter gene): moderate increasing of the levels of reporter gene remaining for long periods at similar levels

Compound: TNFα
- Foxc2nLacZ protein levels (X-gal staining) (Foxc2 expression [2]): levels could be induced

Compound: insulin: Insulin, known to be an inducer of Foxc2, may be utilized as a control
- Foxc2nLacZ protein levels (X-gal staining) (Foxc2 expression [2]): levels could be induced

Reference: patent US20080181877A1, “Method For Monitoring the Effect of Compounds on Foxc2 Expression” (LEANGENE AB, C/O CIT Ekonomiservice AB, priority 2006, published 2008)
